Measured values taken from US12509421B2, “Preparation and application of deuterated 4-phenyl-4-piperidinols” (priority 2022, dated 2025).
Entries after “also recorded” stand apart in the source; their conditions may differ. Read-outs that look alike come from different tables or passages of the source.

Tests used:
[1] = Metabolic stability in liver microsomes, dog; conditions: dog, microsomes, pH 7.4
Experimental: (§1) The solution B is slowly dropped into solution A, and the pH is adjusted to 7.40±0.05.
(§2) • Control drug: 4 μL Verapamil solution (10 mM) is added with 96 μL DMSO and diluted to 400 μM; • Compound to be tested: 4 μL compound to be tested (10 mM) is added with 96 μL normal saline and diluted to 400 μM.
(§3) The microsomes are stored in the refrigerator at −80° C., thawed at room temperature after being taken out, and mixed gently.
(§4) […] PBS (100 mm, pH=7.4) solution is added to the negative sample. The solution is put into water bath at 37° C. and pre-incubated for 10 minutes; • B) After incubation, 2 μL reference drug or compound to be tested (400 μM) are added into each well to start the reaction.

hERG potassium channel [2] = biological target: T1, hERG potassium channel (Homo sapiens, UniProt Q12809); experiment: hERG potassium channel whole-cell patch clamp (HEK293); assay type: cell-based; design: expressed in transfected cells; host or cells: HEK293 cell line
Excerpt: The rapidly activated potassium channel encoded by human ether-a-go-go-related gene (hERG) is an important ion channel involved in the formation of phase 3 repolarization of myocardial action potential. […] Drug-induced delayed ventricular repolarization may cause fatal arrhythmia-torsade de pointes in some cases. According to statistics, about 25-40% of the lead compounds show different degrees of hERG-related toxicity, and many drugs are withdrawn from the market because they may lead to the risk of QT interval extension. At present, National Medical Products Administration also requires hERG/IKr safety evaluation data before clinical trial application (IND) of new drugs under study. • 1. Whole-cell patch clamp technique is used to study the inhibitory effect of compounds on hERG potassium channels: • 1) the compound to be tested is stored with physiological saline prepared into 10 mM liquid. The test stock solution is diluted with physiological saline into 3 mM, 1 mM and 0.3 mM diluents in turn. […] The old culture medium removed and is washed once with PBS, then added with 1 mL TrypLE™ Express solution and incubated at 37° C. for about 0.5 minutes. When the cells are detached from the bottom of the dish, about 5 ml complete medium preheated is added at 37° C. The cell suspension is gently blown with a straw to separate the aggregated cells. The cell suspension is transferred to a sterile centrifuge tube and centrifuged at 1000 rpm for 5 minutes to collect cells. […] The clamping voltage is depolarized from −80 mV to −50 mV for 0.5 seconds (as leakage current detection), then stepped to 30 mV for 2.5 seconds, and then quickly recovered to −50 mV for 4 seconds, which can excite the tail current of hERG channel. Data are collected repeatedly every 10s to observe the effect of drugs on hERG tail current. 0.5 seconds-50 mV stimulation is used as leakage current detection. The test data are collected by IPA amplifier (Sutter Instrument) and stored in SutterPatch software.
Capillary glass tube is drawn into recording electrode by microelectrode drawing instrument. Under the inverted microscope, the microelectrode manipulator is operated to contact the recording electrode with the cell, and negative pressure suction is given to form a GΩ seal. After the GΩ seal is formed, rapid capacitance compensation is carried out, and then negative pressure is continuously applied to break the cell membrane, forming a whole cell recording mode. Then the slow capacitance is compensated and the film capacitance and series resistance are recorded. No leakage compensation is given.
When the hERG current recorded in the whole cell is stable, the drug is administered, and the next concentration is detected after each drug concentration acts for 5 minutes (or the current is stable), and multiple concentrations are detected for each test compound. The cover glass covered with cells is placed in the recording bath in an inverted microscope, and the test compound and the external liquid containing no compound flowed through the recording bath from low concentration to high concentration by gravity perfusion method, so as to act on the cells, and liquid exchange is carried out by using a vacuum pump during recording. The current detected by each cell in the external fluid without compounds is used as its own control group.
At least two cells are used to detect each concentration independently and repeatedly twice. All electrophysiological tests are conducted at room temperature.
Firstly, the current after each drug concentration and the blank control current are standardized
[formula] followed by the calculation of the inhibition rate
[formula] corresponding to each drug concentration, the average and standard deviation for each concentration, and the semi-inhibition concentration of each compound with the following equation: […]
The dose-dependent effect is nonlinear fitted by the above equation, and IC50 is semi-inhibitory concentration.

hERG potassium channel [3] = biological target: T1, hERG potassium channel; conditions: read-out: hERG IC50; J Med Chem.2013 24; 56 (20): 8019-31; cited from earlier work
CYP 2C19 = CYP 2C19 (Homo sapiens, UniProt P33261); experiment: Inhibition of cytochrome P450 enzyme in human liver microsomes, CYP 2C19
[4] = Metabolic stability in liver microsomes, rat; conditions: rat, microsomes, pH 7.4
Experimental: as §1, §2, §3, §4

[5] = Metabolic stability in liver microsomes, mouse; conditions: mouse, microsomes, pH 7.4
Experimental: as §1, §2, §3, §4

CYP 2C9 = CYP 2C9 (Homo sapiens, UniProt P11712); experiment: Inhibition of cytochrome P450 enzyme in human liver microsomes, CYP 2C9
CYP 2D6 = CYP 2D6 (Homo sapiens, UniProt P10635); experiment: Inhibition of cytochrome P450 enzyme in human liver microsomes, CYP 2D6
[6] = Metabolic stability in liver microsomes, human; conditions: human, microsomes, pH 7.4
Experimental: as §1, §2, §3, §4

T1 sequence (Q12809 whole entry): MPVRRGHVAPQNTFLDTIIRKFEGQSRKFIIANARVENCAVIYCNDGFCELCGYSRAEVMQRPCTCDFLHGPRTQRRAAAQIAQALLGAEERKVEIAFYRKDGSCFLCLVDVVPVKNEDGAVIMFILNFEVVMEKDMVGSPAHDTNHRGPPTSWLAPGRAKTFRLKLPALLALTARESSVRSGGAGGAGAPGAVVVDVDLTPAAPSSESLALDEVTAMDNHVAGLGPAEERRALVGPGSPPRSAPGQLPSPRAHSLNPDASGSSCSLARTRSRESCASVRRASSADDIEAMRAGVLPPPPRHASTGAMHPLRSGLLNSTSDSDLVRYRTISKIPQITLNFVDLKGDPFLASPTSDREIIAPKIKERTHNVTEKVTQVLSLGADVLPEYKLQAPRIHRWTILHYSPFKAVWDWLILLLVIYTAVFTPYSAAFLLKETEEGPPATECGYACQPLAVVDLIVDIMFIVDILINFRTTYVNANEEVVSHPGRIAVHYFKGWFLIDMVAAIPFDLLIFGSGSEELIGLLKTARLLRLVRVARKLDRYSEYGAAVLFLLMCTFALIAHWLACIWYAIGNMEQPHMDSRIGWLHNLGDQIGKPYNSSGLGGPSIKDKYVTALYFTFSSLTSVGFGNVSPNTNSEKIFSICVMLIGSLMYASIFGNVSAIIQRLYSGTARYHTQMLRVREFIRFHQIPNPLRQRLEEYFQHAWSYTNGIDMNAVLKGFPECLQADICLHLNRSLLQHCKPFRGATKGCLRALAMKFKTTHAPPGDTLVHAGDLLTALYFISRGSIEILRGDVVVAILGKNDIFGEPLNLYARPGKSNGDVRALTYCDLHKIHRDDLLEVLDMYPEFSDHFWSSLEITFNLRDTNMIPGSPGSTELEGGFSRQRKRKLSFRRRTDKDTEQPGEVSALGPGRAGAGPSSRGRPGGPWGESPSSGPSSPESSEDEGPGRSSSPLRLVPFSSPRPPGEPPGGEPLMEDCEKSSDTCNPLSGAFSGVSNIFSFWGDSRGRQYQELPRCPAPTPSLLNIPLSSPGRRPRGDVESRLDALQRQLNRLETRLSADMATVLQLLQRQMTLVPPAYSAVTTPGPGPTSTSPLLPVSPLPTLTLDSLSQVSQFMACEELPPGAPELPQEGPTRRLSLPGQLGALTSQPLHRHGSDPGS
Chain of CYP 2D6 (P10635 whole entry): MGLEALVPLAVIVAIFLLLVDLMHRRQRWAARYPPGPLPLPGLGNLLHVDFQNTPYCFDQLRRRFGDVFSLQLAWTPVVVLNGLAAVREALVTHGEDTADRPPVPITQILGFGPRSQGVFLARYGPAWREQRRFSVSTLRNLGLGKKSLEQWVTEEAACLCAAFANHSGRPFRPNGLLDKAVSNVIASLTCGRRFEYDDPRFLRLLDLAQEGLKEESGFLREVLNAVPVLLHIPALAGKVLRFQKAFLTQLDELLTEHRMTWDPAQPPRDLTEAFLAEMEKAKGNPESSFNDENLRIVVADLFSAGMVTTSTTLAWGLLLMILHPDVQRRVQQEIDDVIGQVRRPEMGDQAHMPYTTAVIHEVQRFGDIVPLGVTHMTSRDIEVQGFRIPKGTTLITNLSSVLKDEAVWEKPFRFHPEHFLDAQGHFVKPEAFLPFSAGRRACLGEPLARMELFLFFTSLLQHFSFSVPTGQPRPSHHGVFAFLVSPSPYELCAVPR
Chain of CYP 2C9 (P11712 whole entry): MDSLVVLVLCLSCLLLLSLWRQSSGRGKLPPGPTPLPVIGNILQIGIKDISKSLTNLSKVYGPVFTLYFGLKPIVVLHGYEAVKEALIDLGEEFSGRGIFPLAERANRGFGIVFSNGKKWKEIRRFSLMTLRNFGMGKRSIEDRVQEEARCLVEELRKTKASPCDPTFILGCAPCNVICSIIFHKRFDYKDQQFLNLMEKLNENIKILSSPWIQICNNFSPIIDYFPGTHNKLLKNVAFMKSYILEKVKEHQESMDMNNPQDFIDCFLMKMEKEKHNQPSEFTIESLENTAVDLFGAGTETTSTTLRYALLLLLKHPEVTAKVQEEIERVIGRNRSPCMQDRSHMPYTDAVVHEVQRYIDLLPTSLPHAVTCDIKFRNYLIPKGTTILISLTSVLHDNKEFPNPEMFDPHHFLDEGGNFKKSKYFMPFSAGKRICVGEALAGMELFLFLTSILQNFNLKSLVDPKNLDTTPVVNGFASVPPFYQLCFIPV
Chain of CYP 2C19 (P33261 whole entry): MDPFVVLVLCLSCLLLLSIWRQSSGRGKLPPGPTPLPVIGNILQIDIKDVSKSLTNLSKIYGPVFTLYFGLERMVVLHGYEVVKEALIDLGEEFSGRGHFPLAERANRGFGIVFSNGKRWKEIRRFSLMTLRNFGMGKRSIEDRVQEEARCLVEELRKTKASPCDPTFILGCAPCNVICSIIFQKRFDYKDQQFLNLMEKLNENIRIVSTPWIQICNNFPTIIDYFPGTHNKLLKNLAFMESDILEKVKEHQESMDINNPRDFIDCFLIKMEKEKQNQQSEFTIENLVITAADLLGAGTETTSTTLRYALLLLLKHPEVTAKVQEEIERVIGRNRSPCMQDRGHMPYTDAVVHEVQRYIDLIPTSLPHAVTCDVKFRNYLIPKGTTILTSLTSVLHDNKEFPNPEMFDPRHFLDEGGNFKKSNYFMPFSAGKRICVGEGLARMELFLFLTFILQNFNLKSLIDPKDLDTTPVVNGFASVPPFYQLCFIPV

COc1ccsc1CNCC[C@@]1(c2ccccn2)CCOC2(CCCC2)C1 [TRV-130, reference compound]
half-life at 2 μM [1]: 2.22 min | microsomal CLint at 2 μM [1]: 624 µL/min/mg | IC50 (hERG potassium channel [2]): 6.17 µM | hERG inhibition grade (hERG potassium channel [2]): moderate inhibitory effects on hERG; also recorded: μM(Moderate intensity inhibition) | IC50 (hERG potassium channel [3]): 6.2 µM | IC50 (CYP 2C19): > 50 µM | half-life at 2 μM [4]: 1.61 min | microsomal CLint at 2 μM [4]: 863 µL/min/mg | half-life at 2 μM [5]: 1.67 min | microsomal CLint at 2 μM [5]: 831 µL/min/mg | IC50 (CYP 2C9): > 50 µM | IC50 (CYP 2D6): 7.17 µM | half-life at 2 μM [6]: 4.08 min | microsomal CLint at 2 μM [6]: 340 µL/min/mg
